The conditions of data set [1]: U.S. Pat. No. 5,731,347; Phase 2 clinical study; cited from earlier work.
Data set [2] concerns most microorganisms, including gram negative bacteria, fungal spores, and viruses. The data set is classed as cell-based.
The test system of data set [3] is viruses. The settings on record: cited from earlier work.
Data set [4] has as its system viruses. The class given is cell-based.
Data set [5] is described as follows: Gargle and nasal spray with ClO2 solution in people with sore throat, cold or sinusitis. The settings on record: in vivo.
For the next data set, the system named is flu viruses. The note with it: cited from earlier work.

With `CC(O)C(=O)O` (stereo not shown) [lactic acid], the “therapy for canker sores in the mouth” value in data set [1] was “excellent therapy”.

For the molecule chlorine dioxide, the “time to kill most microorganisms” value in data set [2] was “about one”. Also, the “inactivation of all viruses tested” value in the data set with viruses [3] is on record as “inactivated within a minute”. Further, the “deactivation of all viruses” value in the data set on viruses [4] was “deactivated in seconds”. In data set [5], the “inflammation and discomfort noted by users” value was “near-immediate reductions”; the “toxicity or irritation to the mucus membranes” value was “non toxic or non-irritating”. Further, the “kill of all flu viruses” value in the data set on flu viruses was “in a few seconds”.
